Assay results: patent US9890126B2 (priority 2012, dated 2018)
Marks after values point to notes of the source that are not given here.

biological target: IspF (Burkholderia pseudomallei, UniProt Q3JRA0); assay: biochemical; format: binding; conditions: not given
Sequence (Q3JRA0 whole entry, looked up): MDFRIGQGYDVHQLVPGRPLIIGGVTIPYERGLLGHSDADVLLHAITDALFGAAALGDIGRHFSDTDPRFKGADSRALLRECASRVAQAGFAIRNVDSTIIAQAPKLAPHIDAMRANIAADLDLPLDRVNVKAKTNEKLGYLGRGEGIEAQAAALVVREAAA

Row | Compound | Kd [µM]
1 | Oc1ccc(-c2cncn2Cc2ccco2)cc1 [HGN-0019] | 380
2 | Oc1ccc(CCn2cncc2-c2ccc(O)cc2)cc1 [HGN-0048] | 486

same assay, conditions: pH 7.4

Row | Compound | Kd
3 | CCOC(=O)c1cnc(Nc2ccc3[nH]ncc3c2)[nH]c1=O [HGN-0042, Ethyl 2-((1H-indazol-5-yl)amino)-6-oxo-1,6-dihydropyrimidine-5-carboxylate] | not soluble
4 | O=C([O-])c1cnc(Nc2ccc(-c3ccncc3)cc2)nc1[O-].[Na+].[Na+] [HGN-0013] | non-specific
5 | NC(=O)c1c[nH]nc1NC(=O)c1c[nH]c2ncccc12 [HGN-0002] | not soluble
6 | Oc1ccc(-n2ccnc2)cc1 [HGN-0056] | no binding
7 | OC(Cn1cnc(-c2ccccc2)c1-c1ccccc1)c1ccccc1 (stereo not shown) [HGN-0060] | not soluble
8 | CCOC(=O)c1cnc(Nc2ccc(N3CCOCC3)cc2)[nH]c1=O [HGN-0037] | not soluble
9 | CC(C)n1cncc1-c1ccc(O)cc1 [HGN-0018] | no binding
10 | CCOC(=O)c1cnc(Nc2ccc(CC(=O)O)cc2)[nH]c1=O [HGN-0041, 2-(4-((5-(ethoxycaronyl)-6-oxo-1,6-dihydropyrimidin-2-yl)amino)phenyl)acetic acid] | not soluble
11 | CCOC(=O)c1cnc(Nc2ccc3cn[nH]c3c2)[nH]c1=O [HGN-0040, Ethyl 2-((1H-indazol-6-yl)amino)-6-oxo-1,6-dihydropyrimidine-5-carboxylate] | no binding
12 | CC(c1ccccc1)C(O)c1nccn1-c1ccccc1 (stereo not shown) [HGN-0062] | no binding
13 | Cn1ccnc1C(O)Cc1ccccc1 (stereo not shown) [HGN-0061] | no binding
14 | Oc1ccc(-c2cncn2CCc2ccccc2)cc1 [HGN-0052] | no binding

system: Burkholderia; assay: not given; conditions: cells printing symbol L

Row | Compound | % Growth Inhibition Endpoint (24 h)
15 | Oc1ccc(-c2cncn2Cc2ccc(Cl)cc2)cc1 [HGN-0094] | L^c
16 | Oc1ccc(-c2cncn2CCc2ccccc2Cl)cc1 [HGN-0096] | L^c
17 | Oc1ccc(-c2cncn2CCc2cccc(Cl)c2)cc1 [HGN-0108] | L^c
18 | Oc1ccc(-c2cncn2Cc2cccc(Cl)c2)cc1 [HGN-0090] | L^c
19 | CCOC(=O)c1cnc(Nc2ccc(N3CCOCC3)cc2)[nH]c1=O [HGN-0037] | L^c
20 | Oc1ccc(-c2cncn2CCc2ccc(Cl)c(Cl)c2)cc1 [HGN-0100] | L^c
21 | Oc1ccc(-c2cncn2Cc2ccccc2Cl)cc1 [HGN-0091] | L^c

same assay, conditions: concentration not given

Row | Compound | inhibition against Burkholderia [%]
22 | Oc1ccc(-c2cncn2CCc2ccc(F)cc2)cc1 [HGN-0095] | 88.3

same assay, conditions: relative to DMSO control; 0.00 = growth with inhibitor equal to or greater than DMSO control

Row | Compound | % Growth Inhibition Endpoint (24 h) | % Growth Inhibition Growth Curve
23 | CCOC(=O)c1cnc(NCc2ccc(Cl)cc2)[nH]c1=O [HGN-0125] | 23.89 ± 36.14% | 
24 | NC(=O)c1c[nH]nc1NC(=O)c1cnc2sccn12 [HGN-0010] | 7.22 ± 4.24% | 
25 | CCOC(=O)c1cnc(Nc2ccc3[nH]ncc3c2)[nH]c1=O [HGN-0042, Ethyl 2-((1H-indazol-5-yl)amino)-6-oxo-1,6-dihydropyrimidine-5-carboxylate] | 20.70 ± 0.71% | 
26 | O=C([O-])c1cnc(Nc2ccc(-c3ccncc3)cc2)nc1[O-].[Na+].[Na+] [HGN-0013] |  | 6.26 ± 1.00%
27 | CCOC(=O)c1cnc(NCCc2ccc(Cl)cc2Cl)[nH]c1=O [HGN-0117] | 0.00^b % | 
28 | CCOC(=O)c1cnc(Nc2ccc(-c3ccncc3)cc2)[nH]c1=O [HGN-0015] |  | 14.43 ± 2.38%
29 | NC(=O)c1c[nH]nc1NC(=O)c1cncs1 [HGN-0004] | 0.00^b % | 
30 | CCOC(=O)c1cnc(Nc2ccc(N3CCCCC3)cc2)[nH]c1=O [HGN-0034, ethyl 6-oxo-2-((4-(piperidin-1-yl)phenyl)amino)-1,6-dihydropyrimidine-5-carboxylate] | 86.20 ± 0.16% | 
31 | NC(=O)c1c[nH]nc1NC(=O)Cc1cn2ccsc2n1 [HGN-0009] | 0.00^b % | 
32 | CCOC(=O)c1cnc(NCC2CCCO2)[nH]c1=O (stereo not shown) [HGN-0017, ethyl 6-oxo-2-(((tetrahydrofuran-2-yl)methyl)amino)-1,6-dihydropyrimidine-5-carboxylate] |  | 0.00^b %
33 | CCOC(=O)c1cnc(NCc2ccc(F)cc2)[nH]c1=O [HGN-0113] | 0.00^b % | 
34 | CCOC(=O)c1cnc(NCc2ccco2)[nH]c1=O [HGN-0047, Ethyl 2-((furan-2-ylmethyl)amino)-6-oxo-1,6-diydropyrimidine-5-carboxylate] | 0.00^b % | 
35 | O=C([O-])c1cnc(NCc2ccccc2F)nc1[O-].[Na+].[Na+] [HGN-0134] | 26.05 ± 6.37% | 
36 | CCOC(=O)c1cnc(NCc2cccc(Cl)c2)[nH]c1=O [HGN-0123] | 0.00^b % | 
37 | O=C([O-])c1cnc(Nc2ccc(N3CCCCC3)cc2)nc1[O-].[Na+].[Na+] [HGN-0036] | 22.38 ± 21.24% | 
38 | CCOC(=O)c1cnc(NCCc2c(Cl)cccc2Cl)[nH]c1=O [HGN-0135] | 0.00^b % | 
39 | O=C([O-])c1cnc(Nc2cccc(-c3ccccc3)c2)nc1[O-].[Na+].[Na+] [HGN-0044, Sodium 2-([1,1′-biphenyl]-3-ylamino)-4-oxidopyrimidine-5-carboxylate] | 1.48 ± 7.90% | 
40 | O=C([O-])c1cnc(NCc2ccc(Cl)c(Cl)c2)nc1[O-].[Na+].[Na+] [HGN-0130] | 45.59 ± 2.35% | 
41 | Nc1ccn([C@@H]2O[C@H](CNC(=O)Cc3cn4ccsc4n3)[C@@H](O)[C@H]2O)c(=O)n1 [HGN-0102] | 0.00^b % | 

Row | Compound | % Growth Inhibition Endpoint (24 h) | % Growth Inhibition Growth Curve
42 | O=C([O-])c1cnc(NCc2cc(Cl)ccc2Cl)nc1[O-].[Na+].[Na+] [HGN-0128] | 37.46 ± 0.21% | 
43 | CCOC(=O)c1cnc(NCCc2cccc(F)c2)[nH]c1=O [HGN-0115] | 0.00^b % | 
44 | O=C([O-])c1cnc(NCCc2ccc(Cl)c(Cl)c2)nc1[O-].[Na+].[Na+] [HGN-0132] | 72.24 ± 11.83% | 
45 | O=C([O-])c1cnc(NCCc2c(Cl)cccc2Cl)nc1[O-].[Na+].[Na+] [HGN-0136] | 16.71 ± 5.04% | 
46 | Oc1ccc(-c2cncn2CCc2c(Cl)cccc2Cl)cc1 [HGN0098] | 0.00^b % | 
47 | Nc1ccn([C@@H]2O[C@H](CNC(=O)c3ccnc4nc[nH]c34)[C@@H](O)[C@H]2O)c(=O)n1 [HGN-0007] | 0.00^b % | 
48 | O=C([O-])c1cnc(NCc2cccc(Cl)c2)nc1[O-].[Na+].[Na+] [HGN-0124] | 30.67 ± 2.67% | 
49 | CCOC(=O)c1cnc(Nc2ccc(CC(=O)O)cc2)[nH]c1=O [HGN-0041, 2-(4-((5-(ethoxycaronyl)-6-oxo-1,6-dihydropyrimidin-2-yl)amino)phenyl)acetic acid] | 0.00^b % | 
50 | Oc1ccc(-c2cncn2Cc2ccccc2F)cc1 [HGN-0106] | 33.79 ± 16.09% | 
51 | Nc1ccn([C@@H]2O[C@H](CNC(=O)c3cn4ccsc4n3)[C@@H](O)[C@H]2O)c(=O)n1 [HGN-0006] | 0.00^b % | 
52 | O=C([O-])c1cnc(NCC2CCCO2)nc1[O-].[Na+].[Na+] (stereo not shown) [HGN-0050] | 32.99 ± 9.22% | 
53 | Oc1ccc(-c2cncn2CCc2ccc(Cl)cc2Cl)cc1 [HGN-0099] | 0.00^b % | 
54 | CCOC(=O)c1cnc(Nc2ccc3cn[nH]c3c2)[nH]c1=O [HGN-0040, Ethyl 2-((1H-indazol-6-yl)amino)-6-oxo-1,6-dihydropyrimidine-5-carboxylate] | 16.39 ± 6.29% | 
55 | O=C([O-])c1cnc(Nc2ccc(Br)cc2)nc1[O-].[Na+].[Na+] [HGN-0014] | 15.52 ± 0.41% | 
56 | COc1cc(-c2cncn2CCc2c[nH]c3ccccc23)ccc1O [HGN-0137] | 0.00^b % | 
57 | O=C([O-])c1cnc(NCc2ccccc2Cl)nc1[O-].[Na+].[Na+] [HGN-0122] | 23.02 ± 8.79% | 
58 | CCOC(=O)c1cnc(NCc2ccccc2F)[nH]c1=O [HGN-0133] | 0.00^b % | 
59 | CCOC(=O)c1cnc(NCc2ccccc2Cl)[nH]c1=O [HGN-0121] | 0.00^b % | 
60 | CCOC(=O)c1cnc(NCCc2ccccc2Cl)[nH]c1=O [HGN-0119] | 0.00^b % | 

Row | Compound | % Growth Inhibition Endpoint (24 h) | % Growth Inhibition Growth Curve
61 | CCOC(=O)c1cnc(NCc2ccc(Cl)c(Cl)c2)[nH]c1=O [HGN-0129] | 64.42 ± 2.77% | 
62 | Cn1cncc1C(O)c1ccccc1 (stereo not shown) [HGN-0031] |  | 0.00^b %
63 | O=C([O-])c1cnc(NCCc2cccc(F)c2)nc1[O-].[Na+].[Na+] [HGN-0116] | 20.46 ± 3.47% | 
64 | CCOC(=O)c1cnc(NCCc2ccc(F)cc2)[nH]c1=O [HGN-0111] | 31.31 ± 39.32% | 
65 | Nc1ccn([C@@H]2O[C@H](CNC(=O)c3cscn3)[C@@H](O)[C@H]2O)c(=O)n1 [HGN-0008] | 0.00^b % | 
66 | O=C([O-])c1cnc(NCc2ccc(Cl)cc2)nc1[O-].[Na+].[Na+] [HGN-0126] | 34.34 ± 3.24% | 
67 | Oc1ccc(-c2cncn2Cc2cccc(F)c2)cc1 [HGN-0109] | 24.77 ± 10.79% | 
68 | CCOC(=O)c1cnc(NCc2cc(Cl)ccc2Cl)[nH]c1=O [HGN-0127] | 3.47 ± 2.20% | 
69 | Oc1ccc(-c2cncn2Cc2ccc(Cl)c(Cl)c2)cc1 [HGN-0092] | 25.41 ± 2.79% | 
70 | O=C([O-])c1cnc(NCCc2ccc(F)cc2)nc1[O-].[Na+].[Na+] [HGN-0112] | 19.82 ± 16.53% | 
71 | Oc1ccc(-c2cncn2CCc2ccccc2)cc1 [HGN-0022] | 0.00^b % | 
72 | CCOC(=O)c1cnc(NCCc2ccc(Cl)c(Cl)c2)[nH]c1=O [HGN-0131] | 0.00^b % | 
73 | Oc1ccc(-c2cncn2CCc2ccccc2F)cc1 [HGN-0107] | 2.75 ± 2.62% | 
74 | Oc1ccc(-c2cncn2Cc2ccc(F)cc2)cc1 [HGN-0093] | 58.12 ± 2.17% | 
75 | CCOC(=O)c1cnc(Nc2ccc(-c3ccccc3)cc2)[nH]c1=O [HGN-0033, ethyl 2-((1,1′-biphenyl)-4-ylamino)-6-oxo-1,6-dihydropyrimidine-5-carboxylate] | 5.07 ± 2.01% | 
76 | O=C([O-])c1cnc(NCc2ccc(F)cc2)nc1[O-].[Na+].[Na+] [HGN-0114] | 5.94 ± 5.46% | 
77 | Oc1ccc(-c2cncn2CCc2ccc(F)cc2)cc1 [HGN-0095] | 88.27 ± 0.48% | 
78 | O=C([O-])c1cnc(NCCc2ccccc2Cl)nc1[O-].[Na+].[Na+] [HGN-0120] | 80.30 ± 0.40% | 
79 | Oc1ccc(-c2cncn2CCc2cccc(F)c2)cc1 [HGN-0097] | 4.27 ± 14.54% | 
